Measured values taken from paper PMC8721105, “Novel Trypanocidal Inhibitors that Block Glycosome Biogenesis by Targeting PEX3–PEX19 Interaction” (Frontiers in Cell and Developmental Biology, 2021).
Values joined by “and” are separate entries in the source; they are usually repeats but may differ in a detail not shown here. Equal values may be shown once. “Also recorded” adds a separate entry of the source. Read-outs that look alike come from different tables or passages of the source.

B1: GST-TbPEX14: GST-tagged TbPEX14 residues 1-84 (protein)
chain: MSLLLSGVVDDGKSKPEVEHTHSEREKRVSNAVEFLLDSRVRRTPTSSKVHFLKSKGLSAEEICEAFTKVGQPKTLNEIKRILS
modifications: left off: GST, end not stated, kept

How the values were obtained:
BSF427 cells = experiment: Digitonin fractionation of compound-treated BSF cells; details: 24 h treatment; 0.025 μg of digitonin/μg of total protein
Protocol: Pellets were resuspended in 420 μl of homogenization buffer and distributed evenly into four tubes each with 100 μl (4 μg protein). […] The mixture was incubated for 2 min at 37°C, vortexed for 10 s, and centrifuged (16,000 g) at 4°C for 15 min. 100 μl from the supernatant (solubilized fractions) was taken for Western blot analysis. Remaining pellet fractions were washed by adding homogenization buffer up to 125 μl and centrifuged again, supernatants were discarded, and pellets were resuspended in 100 μl for Western blotting.

[1] = ref ChemBridge, cited from earlier work; for Hacc (hydrogen bond acceptor) / Hdon (hydrogen bond donor): provided by the compound library supplier; for LogSw: supplier data
T. brucei BSF427 = experiment: T. brucei cell viability, resazurin-based assay; set-up: species or system Trypanosoma brucei; details: BSF427, 3 days of incubation, resazurin, read-out: T. brucei toxicity (EC50)
Protocol: (§1) BSF strain Lister 427 (termed hereafter as BSF427) and cell line 90-13 (stably expressing Tet repressor) were used in this study. BSF cells were grown in HMI-11 medium and maintained in logarithmic phase [below 2 × 10^6 cells/ml as described in [Kalel et al. (2019)]]. Genomically integrated stable transfections were performed with NotI-linearized plasmid constructs (pGN1-TbPEX11), which integrate into the spacer region of the ribosomal RNA repeat locus in the genome of cell line 90-13, and the clones were selected using blasticidin as described previously ([Kalel et al., 2015]). Expression of TbPEX11-GFP was confirmed with fluorescence microscopy following induction tests (data not shown) with a serial dilution of tetracycline, and minimal concentration (5 ng/ml) of tetracycline was used to achieve expression of the protein in more than 80% of the cells.
T. brucei BSF427 and compound dilutions were mixed in 1 : 1 (v/v) ratio to total volume of 200 μl, to reach final concentrations of 2 × 10^3 cells/ml and 0.19–100 μM of inhibitors, in quadruplicates in 96-well plates. Culture medium with no cells was used as negative control and cultures without presence of compounds as positive control representing normal rate of cell growth. Cells were grown at 37°C in an incubator with humidified air containing 5% CO2 for 3 days. Cell viabilities were measured quantitatively using resazurin dye, by adding 25-µl resazurin (0.1 mg/ml in HBSS) to each well, and the mixture incubated for 6 h in the incubator. Fluorescence emission was detected at 570 and 585 nm after excitation at 530 nm, and fluorescence at 570 nm was subtracted from 585 nm. The inhibition curves were fitted with normalized fluorescence signal (in percentage) against concentration of compounds in Log10 scale using GraphPad Prism, and best fit was used for EC50 estimation. Chemical structures were drawn with ChemDraw 20.0.

TbPEX19-His = experiment: NMR saturation transfer difference (STD) with TbPEX19-His; assay type: binding, Trypanosoma brucei; details: 10 μM protein, 300 µM ligand
Protocol: (§2) NMR saturation transfer difference (STD) experiments ([Mayer and Meyer, 1999]) were carried out on a Bruker AVIII 600-MHz spectrometer equipped with a cryoprobe and a SampleJet auto sampler. One-dimensional (1D) and STD spectra were acquired at 298 K. Compounds were dissolved in DMSO-d6 to a final concentration of 50 mM. STD experiments with GST-TbPEX3, TbPEX19-His, and GST-His were performed in PBS (pH 7.4), 10% D2O at a protein concentration of 10 μM, and a ligand concentration of 300 µM. Saturation time and interscan delay within STD experiments were set to 2 and 2.5 s, respectively.

[2] = target: TbPEX3–TbPEX19 interaction (Trypanosoma brucei brucei, UniProt Q383Q3); experiment: AlphaScreen TbPEX3–TbPEX19 inhibitor screening and dose response; assay type: binding
Protocol: The above solutions were prepared in the reaction buffer [0.5% BSA v/v, 0.05% Tween 80 v/v, 0.2 mM DTT, PBS (pH7.4)] on the day of assay, diluting the compounds from 1 mM stocks in DMSO. Compounds were incubated with the proteins for 30 min at room temperature (RT). Five microliters of AlphaScreen Nickel-chelate acceptor beads (cat. no. 6760619C, PerkinElmer®) and AlphaScreen Glutathione donor beads (cat. no. 6765300, PerkinElmer®) were distributed to the mixture consecutively, with a 15-min interval. The complete 25-μl reaction solutions were incubated for 45 min at RT in the dark, and Alpha signals were captured with Cytation 5 plate reader (BioTek®) with the gain value set at 180. Schematic representation of the experiment setup of the high-throughput screening assays was prepared with BioRender.com.
Following initial hit selection, 10 μM of drugs were tested with GST-His (54 nM) and TbPEX19/TbPEX3 (5 nM) in smaller scale, and the level of signal was normalized (in %) and compared.

[3] = Cytotoxicity test on HepG2 cells; details: human, HepG2 cells, Human cell cytotoxicity (EC50), HepG2, serial dilutions of up to 200 µM
HepG2 cells = experiment: Cytotoxicity test on HepG2 cells; details: read-out: Human cell cytotoxicity (EC50); HepG2, serial dilutions of up to 200 µM
GST-TbPEX3d44 = experiment: NMR saturation transfer difference (STD) with GST-TbPEX3; assay type: binding, Trypanosoma brucei; details: for STD NMR effect with GST-TbPEX3: 10 μM protein, 300 µM ligand; for Target protein (NMR analysis): protein assigned as target, GST-TbPEX3, TbPEX19-His and GST-His tested
Protocol: as §2

[4] = tested on: T. brucei bloodstream form parasites; experiment: Immunofluorescence microscopy of glycosomal aldolase localization; assay type: cell-based, Trypanosoma brucei; details: 24 h treatment; for Mislocalization (% of No. of cells) of aldolase: cultures with 50% of the growth rate of DMSO control
Protocol: BSF 90-13 cells with genomically integrated PEX11-GFP were induced with 5 ng/ml of tetracycline and cultured overnight to initiate stable expression of PEX11-GFP. BSF427- and PEX11-GFP–expressing cells were treated for 24 h with 100 μM, 50 and 25 μM of each of the inhibitor, and DMSO was used as control. Compound-treated cultures with growth rates of about 50% compared to the DMSO control were harvested and stained for immunofluorescence and statistical analysis. Cells were fixed with 4% paraformaldehyde in PBS containing 250 mM sucrose for 20 min. Fixed cells were immobilized on adhesive slide (StarFrost®) pre-coated with 10% (v/v) of poly-L-lysine (Sigma-Aldrich®) in water after 1-h incubation at RT. Cells were permeabilized with 0.1% (v/v) Triton X-100 in PBS (pH7.4) for 15 min and blocked in buffer D [PBS supplemented with 1% (w/v) BSA and 0.25% (v/v) Tween 20] for 1 h. Anti-TbAldolase primary antibody was used at 1:500 dilution in buffer D for 1.5 h incubation. After five washes in PBS for 30 min, samples were treated with Goat anti-rabbit secondary antibody (1:200, v/v, Alexa Fluor™ 594). Samples were washed, dried, and mounted with Mowiol containing 4′,6-diamidino-2-phenylindole (DAPI). Immuno-stained cells were visualized with Zeiss Elyra microscopy. Pictures of stack 3 (of 5), rotation 1 (of 3), and phase 5 (of 5) were chosen for all control and compound-treated samples.

[5] = tested on: PEX11-GFP–expressing BSF cells; experiment: Immunofluorescence of PEX11-GFP–expressing BSF cells; assay type: cell-based, Trypanosoma brucei; details: 24 h treatment
Protocol: as §1
BSF 90-13 cells with genomically integrated PEX11-GFP were induced with 5 ng/ml of tetracycline and cultured overnight to initiate stable expression of PEX11-GFP. BSF427- and PEX11-GFP–expressing cells were treated for 24 h with 100 μM, 50 and 25 μM of each of the inhibitor, and DMSO was used as control. Compound-treated cultures with growth rates of about 50% compared to the DMSO control were harvested and stained for immunofluorescence and statistical analysis. […]

GST-His = target: T1, GST-His (Schistosoma japonicum, UniProt P08515); experiment: NMR saturation transfer difference (STD) with GST-His control; assay type: binding; details: 10 μM protein, 300 µM ligand
T1 construct: made in house; host or cells: E. coli BL21(DE3)
Protocol: as §2

Biotin-TbPEX5pep = experiment: ELISA binding of GST-TbPEX14 and Biotin-TbPEX5pep; set-up: species or system Trypanosoma brucei; details: read-out: KD of GST-TbPEX14 (residue1-84) and Biotin-TbPEX5pep
Protocol: ELISA with TbPEX14–TbPEX5 was used as an independent assay to confirm compound specificity by examining the compound activity on TbPEX14–TbPEX5 interaction. TbPEX14–TbPEX5 assays were performed similarly with following changes. GST-TbPEX14_1-84 was coated, and biotinylated TbPEX5 peptide (Biotin-Aca-Aca-[…]) was used as analyte to a final concentration of 500 nM. Bound PEX5 was detected using streptavidin-conjugated alkaline phosphatase [1:2,000 v/v in PBS, 0.05% v/v Tween 20 (pH 7.4), buffer D, Promega] and p-nitrophenylphosphate (PNPP, Thermo Fisher Scientific) as a substrate, reactions stopped with 3 M NaOH and absorbance read at 405 nm.

Chain of TbPEX3–TbPEX19 interaction (Q383Q3 entry or part of it, other chains not shown): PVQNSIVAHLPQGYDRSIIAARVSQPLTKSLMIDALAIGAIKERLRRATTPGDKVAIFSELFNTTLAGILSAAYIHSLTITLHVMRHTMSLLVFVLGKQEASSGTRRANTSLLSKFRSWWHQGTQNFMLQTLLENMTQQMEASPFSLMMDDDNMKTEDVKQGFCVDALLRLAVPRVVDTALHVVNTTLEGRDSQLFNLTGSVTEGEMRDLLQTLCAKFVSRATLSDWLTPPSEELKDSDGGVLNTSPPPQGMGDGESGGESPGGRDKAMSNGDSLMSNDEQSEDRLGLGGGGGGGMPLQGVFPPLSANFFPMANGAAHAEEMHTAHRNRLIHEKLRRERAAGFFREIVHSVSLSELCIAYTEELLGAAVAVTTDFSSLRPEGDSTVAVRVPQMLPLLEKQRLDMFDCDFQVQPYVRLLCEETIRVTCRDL
T1 sequence (P08515 whole entry): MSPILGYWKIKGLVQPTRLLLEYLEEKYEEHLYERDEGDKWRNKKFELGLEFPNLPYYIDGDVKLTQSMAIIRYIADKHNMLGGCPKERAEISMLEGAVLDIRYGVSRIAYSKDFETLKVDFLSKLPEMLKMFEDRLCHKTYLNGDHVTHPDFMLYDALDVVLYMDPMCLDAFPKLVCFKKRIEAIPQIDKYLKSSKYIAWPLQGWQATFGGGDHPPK

Molecule	Release of glycosomal matrix proteins (HK, gGAPDH) on digitonin fractionation (in words) (BSF427 cells)	Hacc (hydrogen bond acceptor) [1]	Hdon (hydrogen bond donor) [1]	LogSw [1]	EC50 (T. brucei BSF427; Trypanosoma brucei, 72 h) [µM]	STD NMR effect with TbPEX19-His (TbPEX19-His)	IC50 [2] [µM]	EC50 [3] [µM]	EC50 (HepG2 cells) [µM]	STD NMR effect with GST-TbPEX3 (GST-TbPEX3d44)	Aldolase labeling phenotype (in words) [4]	Mislocalization (% of No. of cells) of aldolase [4]	PEX11-GFP and matrix protein localization (in words) [5]	STD NMR effect with GST-His control (GST-His)	EC50 (T. brucei BSF427) [µM]	Target protein (NMR analysis) (GST-TbPEX3d44)	Kd (Biotin-TbPEX5pep) [µM]
CCn1c2c(c3cc(C(=O)N4CCc5[nH]cnc5C4c4cccnc4)ccc31)CCCC2=O (stereo not shown) [Compound 3, 9-ethyl-6-[(4-pyridin-3-yl-1,4,6,7-tetrahydro-5H-imidazo[4,5-c]pyridin-5-yl)carbonyl]-2,3,4,9-tetrahydro-1H-carbazol-1-one]	mislocalization of the matrix protein into cytosol	4	1	-1.77	38	notable STD signal	14.3	84.4	84	strong line-broadening	partial mislocalization of aldolase to the cytosol	~27% and 27.5%	mislocalization of both PEX11 and matrix proteins	weak line-broadening	–	–	–
COCC1CCCN(S(=O)(=O)N2CCCN(Cc3cccc(F)c3)CC2)C1 (stereo not shown) [Compound 2, 1-(3-fluorobenzyl)-4-{[3-(methoxymethyl)piperidin-1-yl]sulfonyl}-1,4-diazepane]	mislocalization of the matrix protein into cytosol	4	0	-1.59	26.9	–	37.5	> 200	–	significant STD effects; also recorded: strong STD signal	mislocalization of aldolase to the cytosol	~21% and 21.2%	partly mislocalized to cytosol	not to GST-His; also recorded: not with TbPEX19 or GST	27	TbPEX3	–
c1ccc(-c2ncc(CNCCOc3cccc4cccnc34)cn2)nc1 [Compound 1, N-[(2-pyridin-2-ylpyrimidin-5-yl)methyl]-2-(quinolin-8-yloxy)ethanamine]	–	6	1	-2.69	32.7	–	1	> 200	–	significant STD effects; also recorded: strong STD signal	diffused pattern of aldolase labeling	–	–	not to GST-His; also recorded: not with TbPEX19 or GST	33	TbPEX3	–
B1	–	–	–	–	–	–	–	–	–	–	–	–	–	–	–	–	0.52 ± 0.13
